Measurements: paper PMC3961306, “Comparison of the Cancer Gene Targeting and Biochemical Selectivities of All Targeted Kinase Inhibitors Approved for Clinical Use” (PLoS ONE, 2014)

Columns and labels:
Assay in all cases: Kinase profiling in a biochemical assay panel (mobility shift assays and ELISA), %-inhibition at 1 μM; selectivity entropy
[1] = molecular target: panel of more than 300 wild-type and mutant kinases (313 kinase panel) (Homo sapiens, UniProt Q15119); settings: kinase PDHK2; 1 μM
[2] = molecular target: panel of more than 300 wild-type and mutant kinases (313 kinase panel) (Homo sapiens, UniProt Q9H2X6); settings: kinase HIPK2; compound at 1 μM
[3] = molecular target: T1, panel of more than 300 wild-type and mutant kinases (313 kinase panel) (Homo sapiens, UniProt P29323); settings: kinase EPHB2; compound at 1 μM
T1 sequence (P29323 19-1055): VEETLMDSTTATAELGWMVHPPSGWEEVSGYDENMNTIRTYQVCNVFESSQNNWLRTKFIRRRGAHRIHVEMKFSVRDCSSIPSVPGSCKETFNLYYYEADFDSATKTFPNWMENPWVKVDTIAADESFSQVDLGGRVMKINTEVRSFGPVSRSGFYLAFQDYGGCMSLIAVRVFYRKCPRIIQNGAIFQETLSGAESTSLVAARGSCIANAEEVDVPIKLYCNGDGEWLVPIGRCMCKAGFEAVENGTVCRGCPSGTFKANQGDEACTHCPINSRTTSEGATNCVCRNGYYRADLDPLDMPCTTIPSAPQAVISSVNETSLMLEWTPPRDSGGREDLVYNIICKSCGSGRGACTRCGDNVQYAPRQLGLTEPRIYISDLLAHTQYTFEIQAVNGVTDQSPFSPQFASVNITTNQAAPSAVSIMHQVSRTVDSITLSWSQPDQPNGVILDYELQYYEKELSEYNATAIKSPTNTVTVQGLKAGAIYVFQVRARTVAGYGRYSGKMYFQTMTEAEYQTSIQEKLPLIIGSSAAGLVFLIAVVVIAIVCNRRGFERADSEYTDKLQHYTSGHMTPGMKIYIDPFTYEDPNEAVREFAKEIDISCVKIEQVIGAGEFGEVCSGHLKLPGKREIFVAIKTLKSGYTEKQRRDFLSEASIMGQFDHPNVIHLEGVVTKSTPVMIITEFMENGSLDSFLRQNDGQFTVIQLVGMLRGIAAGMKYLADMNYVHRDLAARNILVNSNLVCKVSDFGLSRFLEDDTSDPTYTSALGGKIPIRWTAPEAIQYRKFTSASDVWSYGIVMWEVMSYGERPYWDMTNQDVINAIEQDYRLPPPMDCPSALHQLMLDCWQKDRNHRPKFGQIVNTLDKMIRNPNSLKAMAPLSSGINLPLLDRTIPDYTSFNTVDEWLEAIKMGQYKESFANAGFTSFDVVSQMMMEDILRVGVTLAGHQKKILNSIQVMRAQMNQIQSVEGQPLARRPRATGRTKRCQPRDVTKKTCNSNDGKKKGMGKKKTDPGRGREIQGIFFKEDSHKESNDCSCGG

[4] = molecular target: panel of more than 300 wild-type and mutant kinases (313 kinase panel) (Homo sapiens, UniProt P68400); settings: kinase CK2α1/β; 1 μM compound
[5] = molecular target: T2, panel of more than 300 wild-type and mutant kinases (313 kinase panel) (Homo sapiens, UniProt Q13188); settings: kinase MST2; 1 μM
T2 sequence (Q13188 1-491): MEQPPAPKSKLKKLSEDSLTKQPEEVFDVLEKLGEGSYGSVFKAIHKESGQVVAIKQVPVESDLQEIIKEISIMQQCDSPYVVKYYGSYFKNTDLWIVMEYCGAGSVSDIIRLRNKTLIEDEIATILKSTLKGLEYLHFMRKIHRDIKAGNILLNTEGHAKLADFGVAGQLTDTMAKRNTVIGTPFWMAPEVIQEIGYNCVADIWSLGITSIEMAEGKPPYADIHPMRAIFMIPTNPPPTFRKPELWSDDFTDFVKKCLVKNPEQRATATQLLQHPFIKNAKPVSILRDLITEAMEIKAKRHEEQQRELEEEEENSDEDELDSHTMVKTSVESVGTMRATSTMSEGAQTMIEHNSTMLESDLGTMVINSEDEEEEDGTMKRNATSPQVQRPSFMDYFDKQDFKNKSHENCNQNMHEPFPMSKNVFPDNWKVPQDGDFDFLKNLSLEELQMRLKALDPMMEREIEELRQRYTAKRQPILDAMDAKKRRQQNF

[6] = molecular target: panel of more than 300 wild-type and mutant kinases (313 kinase panel) (Homo sapiens, UniProt Q00535); settings: kinase CDK5/p25; 1 μM compound
Sequence of panel of more than 300 wild-type and mutant kinases (313 kinase panel) (Homo sapiens, UniProt Q00535) (Q00535 whole entry, stated change not applied): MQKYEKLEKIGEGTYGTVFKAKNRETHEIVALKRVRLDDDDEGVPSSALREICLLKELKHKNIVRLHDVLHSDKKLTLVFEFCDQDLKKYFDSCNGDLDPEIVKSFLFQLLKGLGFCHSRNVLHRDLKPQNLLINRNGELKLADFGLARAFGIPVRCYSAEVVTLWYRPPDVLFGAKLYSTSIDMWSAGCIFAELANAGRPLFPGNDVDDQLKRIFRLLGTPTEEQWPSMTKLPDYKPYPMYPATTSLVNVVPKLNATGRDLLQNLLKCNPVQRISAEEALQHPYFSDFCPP

[7] = molecular target: panel of more than 300 wild-type and mutant kinases (313 kinase panel) (Homo sapiens, UniProt Q8IU85); settings: kinase CaMK1δ; 1 μM compound
[8] = molecular target: panel of more than 300 wild-type and mutant kinases (313 kinase panel) (Homo sapiens, UniProt Q04912); settings: kinase RON; 1 μM
[9] = molecular target: panel of more than 300 wild-type and mutant kinases (313 kinase panel) (Homo sapiens, UniProt Q9UKE5); settings: kinase TNIK; 1 μM
Sequence of panel of more than 300 wild-type and mutant kinases (313 kinase panel) (Homo sapiens, UniProt Q9UKE5) (Q9UKE5 whole entry, change not shown): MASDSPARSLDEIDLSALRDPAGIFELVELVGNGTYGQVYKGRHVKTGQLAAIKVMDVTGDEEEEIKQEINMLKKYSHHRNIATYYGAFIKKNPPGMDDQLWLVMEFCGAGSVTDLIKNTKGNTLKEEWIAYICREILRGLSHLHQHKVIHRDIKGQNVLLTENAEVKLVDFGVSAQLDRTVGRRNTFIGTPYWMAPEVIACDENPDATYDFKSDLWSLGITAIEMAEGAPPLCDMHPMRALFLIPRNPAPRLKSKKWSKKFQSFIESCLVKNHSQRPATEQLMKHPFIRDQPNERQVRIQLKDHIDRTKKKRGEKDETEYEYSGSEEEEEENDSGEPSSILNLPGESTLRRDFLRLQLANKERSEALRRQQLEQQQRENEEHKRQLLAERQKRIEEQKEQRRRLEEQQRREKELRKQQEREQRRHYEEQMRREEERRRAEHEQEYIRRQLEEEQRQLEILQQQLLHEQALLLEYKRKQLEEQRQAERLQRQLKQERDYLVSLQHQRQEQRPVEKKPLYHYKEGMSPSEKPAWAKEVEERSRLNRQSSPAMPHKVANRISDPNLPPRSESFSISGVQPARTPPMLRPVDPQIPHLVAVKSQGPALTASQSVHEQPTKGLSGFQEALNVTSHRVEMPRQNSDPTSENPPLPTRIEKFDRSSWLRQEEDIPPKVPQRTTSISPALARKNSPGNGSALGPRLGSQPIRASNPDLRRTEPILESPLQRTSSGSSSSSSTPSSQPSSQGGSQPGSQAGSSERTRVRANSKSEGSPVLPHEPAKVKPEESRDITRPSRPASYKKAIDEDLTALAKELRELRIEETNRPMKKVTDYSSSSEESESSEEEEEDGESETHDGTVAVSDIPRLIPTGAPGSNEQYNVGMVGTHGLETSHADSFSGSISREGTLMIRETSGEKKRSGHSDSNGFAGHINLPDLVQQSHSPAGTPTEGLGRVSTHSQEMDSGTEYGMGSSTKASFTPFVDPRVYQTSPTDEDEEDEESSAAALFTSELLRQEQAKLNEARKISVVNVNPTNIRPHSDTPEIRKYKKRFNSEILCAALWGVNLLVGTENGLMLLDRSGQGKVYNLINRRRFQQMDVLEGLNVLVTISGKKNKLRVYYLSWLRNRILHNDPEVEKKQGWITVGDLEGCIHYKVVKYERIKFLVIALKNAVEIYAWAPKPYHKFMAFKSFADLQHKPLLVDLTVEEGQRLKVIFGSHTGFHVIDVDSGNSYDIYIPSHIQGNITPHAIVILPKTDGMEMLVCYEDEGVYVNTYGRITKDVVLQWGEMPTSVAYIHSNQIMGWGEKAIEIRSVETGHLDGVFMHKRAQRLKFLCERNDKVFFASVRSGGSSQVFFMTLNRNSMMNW

[10] = molecular target: panel of more than 300 wild-type and mutant kinases (313 kinase panel) (Homo sapiens, UniProt P17948); settings: kinase FLT1; compound at 1 μM
[11] = molecular target: panel of more than 300 wild-type and mutant kinases (313 kinase panel) (Homo sapiens, UniProt P22607); settings: kinase FGFR3; compound at 1 μM
Sequence of panel of more than 300 wild-type and mutant kinases (313 kinase panel) (Homo sapiens, UniProt P22607) (P22607 23-806, change not shown): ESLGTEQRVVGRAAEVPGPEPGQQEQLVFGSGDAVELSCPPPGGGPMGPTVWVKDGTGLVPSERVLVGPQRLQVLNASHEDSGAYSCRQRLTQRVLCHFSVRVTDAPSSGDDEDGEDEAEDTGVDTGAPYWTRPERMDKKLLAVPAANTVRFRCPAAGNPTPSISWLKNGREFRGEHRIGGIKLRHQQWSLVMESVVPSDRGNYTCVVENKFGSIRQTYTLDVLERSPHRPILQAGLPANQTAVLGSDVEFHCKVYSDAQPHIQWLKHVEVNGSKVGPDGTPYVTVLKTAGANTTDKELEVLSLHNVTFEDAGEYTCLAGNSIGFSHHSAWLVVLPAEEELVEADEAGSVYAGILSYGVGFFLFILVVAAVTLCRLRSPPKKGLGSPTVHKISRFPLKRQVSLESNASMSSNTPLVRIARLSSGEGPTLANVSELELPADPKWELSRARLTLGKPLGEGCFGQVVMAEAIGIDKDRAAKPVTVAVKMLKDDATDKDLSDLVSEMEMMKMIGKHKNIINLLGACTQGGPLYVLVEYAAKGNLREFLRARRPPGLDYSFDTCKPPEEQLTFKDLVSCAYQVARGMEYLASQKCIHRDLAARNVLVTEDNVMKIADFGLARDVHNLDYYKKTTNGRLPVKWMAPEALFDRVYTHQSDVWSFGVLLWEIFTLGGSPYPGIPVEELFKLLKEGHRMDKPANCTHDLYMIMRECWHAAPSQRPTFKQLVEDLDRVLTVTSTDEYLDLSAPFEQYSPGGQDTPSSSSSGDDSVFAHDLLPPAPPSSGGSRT

| Compound | %-inhibition of PDHK2 [1] [%] | %-inhibition of HIPK2 [2] [%] | %-inhibition of EPHB2 [3] [%] | %-inhibition, CK2α1/β [4] [%] | %-inhibition of MST2 [5] [%] | %-inhibition, CDK5/p25 [6] [%] | %-inhibition, CaMK1δ [7] [%] | %-inhibition of RON [8] [%] | %-inhibition of TNIK [9] [%] | %-inhibition of FLT1 [10] [%] | %-inhibition of FGFR3 [11] [%] |
| --- | --- | --- | --- | --- | --- | --- | --- | --- | --- | --- | --- |
| CO[C@H]1C[C@@H]2CC[C@@H](C)[C@@](O)(O2)C(=O)C(=O)N2CCCC[C@H]2C(=O)O[C@H]([C@H](C)C[C@@H]2CC[C@@H](OC(=O)C(C)(CO)CO)[C@H](OC)C2)CC(=O)[C@H](C)/C=C(\C)[C@@H](O)[C@@H](OC)C(=O)[C@H](C)C[C@H](C)/C=C/C=C/C=C/1C [temsirolimus] | -2.2 | 0.538 | -5.66 | -6.65 | -3.41 | -22 | -7 | -3 | -2.54 | -2 | -5 |
| CC(=O)Nc1cccc(-n2c(=O)n(C3CC3)c(=O)c3c(Nc4ccc(I)cc4F)n(C)c(=O)c(C)c32)c1 [trametinib] | -0.542 | 0.155 | -8 | -3.4 | -3 | 19 | -3.3 | -6.44 | 3 | -2.75 | -5.68 |
| CCCS(=O)(=O)Nc1ccc(F)c(C(=O)c2c[nH]c3ncc(-c4ccc(Cl)cc4)cc23)c1F [vemurafenib] | 3.73 | -5 | -2.11 | -5.39 | 24 | 5 | -7 | -2 | 33 | 25 | 15 |
